According to ChEMBL document CHEMBL5604063, “ASAP - DENV-2 NS2B-NS3 protease fluorescence dose response” (2024):
Several values for one entry are separate records, joined by “and”; a condition that tells them apart may be missing. Identical values can stand only once.

The compounds below were run against Genome polyprotein (dengue virus type 2, UniProt P29990).
Assay type: functional, Thailand/16681/1984

Chain of Genome polyprotein (P29990 1346-1475 limits assumed): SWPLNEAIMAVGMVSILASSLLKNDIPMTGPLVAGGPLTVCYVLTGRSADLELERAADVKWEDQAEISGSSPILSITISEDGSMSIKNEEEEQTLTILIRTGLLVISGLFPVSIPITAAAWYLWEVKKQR
Chain of Genome polyprotein (P29990 1476-2093 limits assumed): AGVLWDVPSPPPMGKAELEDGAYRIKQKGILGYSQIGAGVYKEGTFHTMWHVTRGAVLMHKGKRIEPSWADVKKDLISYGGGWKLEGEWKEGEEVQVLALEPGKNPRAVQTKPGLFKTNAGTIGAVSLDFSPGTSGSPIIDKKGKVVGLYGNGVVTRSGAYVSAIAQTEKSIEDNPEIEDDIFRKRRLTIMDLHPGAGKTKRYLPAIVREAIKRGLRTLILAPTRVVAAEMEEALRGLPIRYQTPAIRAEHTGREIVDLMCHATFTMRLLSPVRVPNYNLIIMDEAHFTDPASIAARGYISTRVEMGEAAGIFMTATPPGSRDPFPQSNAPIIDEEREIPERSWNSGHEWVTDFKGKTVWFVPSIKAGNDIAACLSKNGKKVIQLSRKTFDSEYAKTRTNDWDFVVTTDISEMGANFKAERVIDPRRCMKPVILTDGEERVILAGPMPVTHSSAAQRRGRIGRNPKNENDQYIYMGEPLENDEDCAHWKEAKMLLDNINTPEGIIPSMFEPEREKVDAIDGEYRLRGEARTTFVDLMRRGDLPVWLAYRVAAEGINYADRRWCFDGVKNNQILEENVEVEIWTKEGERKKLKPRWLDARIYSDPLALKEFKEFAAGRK

Q: `NCc1ccc(-c2ncc(OCC3CCNCC3)nc2-c2ccc(-c3ccoc3)cc2)cc1` was tested. Which IC50 did it give?
A: The IC50 was > 99.5 µM.

Q: `NCc1ccc(-c2ncc(OCC3CCNCC3)nc2-c2ccc(C3CCOCC3)cc2)cc1` was tested. Which IC50 did it give?
A: The IC50 was > 99.5 µM.

Q: How did the IC50 turn out when `NCc1cccc(NC(=O)[C@H](NC(=O)OCc2ccccc2)C(C2CCC2)C2CCC2)c1` was run?
A: Its IC50 is > 99.5 µM.

Q: How did the IC50 turn out when `CN1CCN(C2CN(C(=O)c3cc(Br)cc(C=O)c3)C2)CC1` was run?
A: The IC50 was > 99.5 µM.

Q: For `CCn1cc(-c2ccnc(N(C)C)c2)nc(N2CC[C@@H](CO)C2)c1=O`, which IC50 is on record?
A: The IC50 was > 99.5 µM.

Q: For `CCn1cc(-c2ccc(OC)c(C)c2)nc(N2CC[C@@H](CO)C2)c1=O`, which IC50 is on record?
A: Its IC50 is > 99.5 µM.

Q: Which IC50 does the source give for `NCc1cccc(NC(=O)[C@@H](NC(=O)OCc2ccccc2)c2ccc(-c3ccnc(N)c3)cc2)c1` here?
A: Its IC50 is > 99.5 µM.

Q: With `CCOc1ccc(F)cc1-c1cn(CC)c(=O)c(N2CC[C@@H](CO)C2)n1` as the compound, how does the IC50 read?
A: The IC50 was > 99.5 µM.

Q: How did the IC50 turn out when `CCc1ccc(-c2ccc([C@@H](NC(=O)OCc3ccccc3)C(=O)Nc3cccc(CN)c3)cc2)cc1` was run?
A: Its IC50 is 6.61 µM.

Q: Which IC50 does the source give for `CCn1cc(-c2cncc(OC)c2)nc(N2CC[C@@H](CO)C2)c1=O` here?
A: Its IC50 is > 99.5 µM.

Q: With `O=S(=O)(Nc1ccc(Cl)cc1CO)c1ccc(Oc2ccccc2Cl)cc1` as the compound, how does the IC50 read?
A: The IC50 was 78.8 µM.

Q: With `CN1CCN(C2CCN(C(=O)c3cc(C=O)n(C)c3)CC2)CC1` as the compound, how does the IC50 read?
A: The IC50 was > 99.5 µM.

Q: `Cn1nccc1-c1ccc([C@@H](NC(=O)OCc2ccccc2)C(=O)Nc2cccc(CN)c2)cc1` was tested. Which IC50 did it give?
A: The IC50 was > 99.5 µM.

Q: With `CCn1cc(-c2cccc(CN(C)C)c2)nc(N2CC[C@@H](CO)C2)c1=O` as the compound, how does the IC50 read?
A: The IC50 was > 99.5 µM.

Q: How did the IC50 turn out when `CCn1cc(-c2ccccc2C(C)C)nc(N2CC[C@@H](CO)C2)c1=O` was run?
A: The IC50 was > 99.5 µM.

Q: How did the IC50 turn out when `CCn1cc(-c2ccc3c(c2)CCNC3)nc(N2CC[C@@H](CO)C2)c1=O` was run?
A: Its IC50 is > 99.5 µM.

Q: `c1ccc2c(CN3CCC(c4nn[nH]n4)CC3)c[nH]c2c1` was tested. Which IC50 did it give?
A: Its IC50 is > 99.5 µM.

Q: Which IC50 does the source give for `COC(=O)c1cc(Cl)ccc1NS(=O)(=O)c1ccc(O)cc1` here?
A: The IC50 was > 99.5 µM.

Q: For `CCn1cc(-c2cnn(C)n2)nc(N2CC[C@@H](CO)C2)c1=O`, which IC50 is on record?
A: Its IC50 is > 99.5 µM.

Q: How did the IC50 turn out when `O=C(O)c1cc(Cl)cc(NS(=O)(=O)c2ccc(Oc3ccccc3Cl)cc2)c1` was run?
A: The IC50 was > 99.5 µM.

Q: Which IC50 does the source give for `CCn1cc(-c2ccc3ocnc3c2)nc(N2CC[C@@H](CO)C2)c1=O` here?
A: Its IC50 is > 99.5 µM.

Q: How did the IC50 turn out when `CCOc1cccc(N2CC[C@@H](CO)C2)c1` was run?
A: The IC50 was > 99.5 µM.

Q: With `CCn1cc(-c2cccc(-n3cccn3)c2)nc(N2CC[C@@H](CO)C2)c1=O` as the compound, how does the IC50 read?
A: Its IC50 is > 99.5 µM.

Q: Which IC50 does the source give for `NCc1cccc(NC(=O)[C@@H](NC(=O)OCc2ccccc2)c2cccc(Br)c2)c1` here?
A: Its IC50 is 85.8 µM.

Q: With `N#Cc1cc(F)cc(N2CC[C@H](CO)C2)c1` as the compound, how does the IC50 read?
A: The IC50 was > 99.5 µM.

Q: For `CCn1cc(-c2cccc(OC)c2F)nc(N2CC[C@@H](CO)C2)c1=O`, which IC50 is on record?
A: Its IC50 is > 99.5 µM.

Q: How did the IC50 turn out when `CCn1cc(-c2cnn(-c3ccccc3)c2)nc(N2CC[C@@H](CO)C2)c1=O` was run?
A: Its IC50 is > 99.5 µM.

Q: For `CCn1cc(-c2cn(C)nc2C)nc(N2CC[C@@H](CO)C2)c1=O`, which IC50 is on record?
A: The IC50 was > 99.5 µM.

Q: Which IC50 does the source give for `Cc1cnc(Oc2ccc(S(=O)(=O)Nc3ccc(Cl)cc3C(=O)O)cc2)cn1` here?
A: The IC50 was > 99.5 µM.

Q: For `O=C(O)c1cc(Cl)ccc1NS(=O)(=O)c1ccc(Oc2ccccc2Cl)nc1`, which IC50 is on record?
A: The IC50 was 46.9 µM.

Q: For `Cc1cc(C)c(C(=O)N2C[C@H]3CN(C)CC[C@@]3(CO)C2)cc1C=O`, which IC50 is on record?
A: The IC50 was > 99.5 µM.

Q: How did the IC50 turn out when `COc1cccc(-c2ccc([C@@H](NC(=O)OCc3ccccc3)C(=O)Nc3cccc(CN)c3)cc2)c1` was run?
A: The IC50 was 9.12 µM and 6.13 µM and 6.64 µM.

Q: How did the IC50 turn out when `CN(C)C[C@@]1(O)CCN(C(=O)c2cc(C=O)c[nH]2)C1` was run?
A: Its IC50 is > 99.5 µM.

Q: Which IC50 does the source give for `Cc1cccc(-c2ccc([C@@H](NC(=O)OCc3ccccc3)C(=O)Nc3cccc(CN)c3)cc2)c1` here?
A: Its IC50 is 9.31 µM.

Q: For `COC(=O)c1cc(Cl)ccc1NS(=O)(=O)c1ccc(Oc2ccccc2Cl)nc1`, which IC50 is on record?
A: The IC50 was > 99.5 µM.

Q: Which IC50 does the source give for `COC(=O)[C@@H]1CC2(CC[C@@H]1NS(=O)(=O)c1ccc(Oc3ccccc3Cl)cc1)CC2` here?
A: The IC50 was > 99.5 µM.

Q: Which IC50 does the source give for `NCc1cccc(N2CCN(C(=O)OCc3ccccc3)[C@H](c3ccc(OCc4ccccc4)cc3)C2=O)c1` here?
A: Its IC50 is 74.7 µM.

Q: Which IC50 does the source give for `NCc1cccc(NC(=O)[C@]2(NC(=O)OCc3ccccc3)CCOc3ccccc32)c1` here?
A: The IC50 was > 99.5 µM.

Q: With `O=C(O)c1cc(Cl)ccc1NS(=O)(=O)c1ccc(N[C@H]2CCOC2)nc1` as the compound, how does the IC50 read?
A: Its IC50 is > 99.5 µM.

Q: How did the IC50 turn out when `COc1cc(Cl)cc(C(=O)O)c1NS(=O)(=O)c1ccc(Oc2ccccc2Cl)cc1` was run?
A: Its IC50 is 22.6 µM.

Q: For `CCc1ccccc1-c1ccc([C@@H](NC(=O)OCc2ccccc2)C(=O)Nc2cccc(CN)c2)cc1`, which IC50 is on record?
A: Its IC50 is 9.17 µM.

Q: Which IC50 does the source give for `CCn1cc(C2=CCCNC2)nc(N2CC[C@@H](CO)C2)c1=O` here?
A: Its IC50 is > 99.5 µM.

Q: `NCc1cccc(NC(=O)CN2CCN(C(=O)OCc3ccccc3)CC2)c1` was tested. Which IC50 did it give?
A: The IC50 was > 99.5 µM.

Q: With `CCn1cc(-c2ccc3nn(C)cc3c2)nc(N2CC[C@@H](CO)C2)c1=O` as the compound, how does the IC50 read?
A: Its IC50 is > 99.5 µM.

Q: Which IC50 does the source give for `CCn1cc(-c2cc(F)ccc2C)nc(N2CC[C@@H](CO)C2)c1=O` here?
A: The IC50 was > 99.5 µM.

Q: For `O=C(NCc1cc(Cl)ccc1NS(=O)(=O)c1ccc(Oc2ccccc2Cl)cc1)C1CC1`, which IC50 is on record?
A: Its IC50 is > 99.5 µM.

Q: For `NCc1cccc(NC(=O)[C@H](NC(=O)OCc2ccccc2)C2CCCCC2)c1`, which IC50 is on record?
A: Its IC50 is > 99.5 µM.

Q: For `Cn1cc(-c2ccc([C@@H](NC(=O)OCc3ccccc3)C(=O)Nc3cccc(CN)c3)cc2)cn1`, which IC50 is on record?
A: Its IC50 is > 99.5 µM.

Q: With `CN(c1ncnc(-c2ccsc2C=O)n1)C1CCNCC1` as the compound, how does the IC50 read?
A: Its IC50 is > 99.5 µM.

Q: How did the IC50 turn out when `O=C(O)c1ccsc1NS(=O)(=O)c1ccc(Oc2ccccc2Cl)cc1` was run?
A: Its IC50 is 20.1 µM.

Q: For `CCn1cc(-c2c[nH]c3ncccc23)nc(N2CC[C@@H](CO)C2)c1=O`, which IC50 is on record?
A: The IC50 was > 99.5 µM.

Q: Which IC50 does the source give for `CCn1cc(-c2ccc(C(F)F)nc2)nc(N2CC[C@@H](CO)C2)c1=O` here?
A: The IC50 was > 99.5 µM.

Q: Which IC50 does the source give for `C[C@@H](NC(=O)c1ccc2[nH]cc(C=O)c2c1)C1=CCN(C)CC1` here?
A: Its IC50 is > 99.5 µM.

Q: `CCc1ccc(-c2cn(CC)c(=O)c(N3CC[C@@H](CO)C3)n2)s1` was tested. Which IC50 did it give?
A: Its IC50 is > 99.5 µM.

Q: Which IC50 does the source give for `NCc1cccc(NC(=O)[C@@H](NC(=O)OCc2ccccc2)c2ccc(-c3cncnc3)cc2)c1` here?
A: Its IC50 is > 99.5 µM.

Q: Which IC50 does the source give for `C[C@H]1CN(C(=O)Cc2ccc(C=O)[nH]2)CCN1C1CCCC1` here?
A: The IC50 was > 99.5 µM.

Q: For `CCn1cc(-c2cnccc2C)nc(N2CC[C@@H](CO)C2)c1=O`, which IC50 is on record?
A: The IC50 was > 99.5 µM.

Q: How did the IC50 turn out when `CCn1cc(-c2cnc3ccnn3c2)nc(N2CC[C@@H](CO)C2)c1=O` was run?
A: Its IC50 is > 99.5 µM.

Q: For `O=C(O)c1cscc1NS(=O)(=O)c1ccc(Oc2ccccc2Cl)cc1`, which IC50 is on record?
A: The IC50 was 34.1 µM.

Q: How did the IC50 turn out when `CC1(C)CCC([C@@H](NC(=O)OCc2ccccc2)C(=O)Nc2cccc(CN)c2)CC1` was run?
A: Its IC50 is > 99.5 µM.

Q: `Cc1ccc(F)c(-c2ccc([C@@H](NC(=O)OCc3ccccc3)C(=O)Nc3cccc(CN)c3)cc2)c1` was tested. Which IC50 did it give?
A: The IC50 was 9.46 µM.

Q: How did the IC50 turn out when `NCc1cccc(NC(=O)[C@@H](NC(=O)OCc2ccccc2)c2ccc(-c3cccnc3F)cc2)c1` was run?
A: Its IC50 is 71.4 µM.

Q: Which IC50 does the source give for `NCc1cccc(NC(=O)[C@@H](NC(=O)OCc2ccccc2)c2ccc(-c3cc4cccnc4s3)cc2)c1` here?
A: Its IC50 is 6.07 µM.

Q: How did the IC50 turn out when `O=C(O)CN(c1ccc(Cl)cc1)S(=O)(=O)c1ccc(Oc2ccccc2Cl)cc1` was run?
A: Its IC50 is 86.6 µM.

Q: With `CCn1nccc1-c1cn(CC)c(=O)c(N2CC[C@@H](CO)C2)n1` as the compound, how does the IC50 read?
A: Its IC50 is > 99.5 µM.

Q: For `CCn1cc(-c2ccc([C@@H](NC(=O)OCc3ccccc3)C(=O)Nc3cccc(CN)c3)cc2)cn1`, which IC50 is on record?
A: Its IC50 is > 99.5 µM.

Q: With `O=Cc1ccc(CC(=O)N2C[C@@H](O)[C@H](N3CCOCC3)C2)cc1` as the compound, how does the IC50 read?
A: The IC50 was > 99.5 µM.

Q: Which IC50 does the source give for `Cc1nccnc1Oc1ccc(S(=O)(=O)Nc2ccc(Cl)cc2C(=O)O)cc1` here?
A: The IC50 was > 99.5 µM.

Q: Which IC50 does the source give for `NCc1cccc(NC(=O)C2(CNC(=O)OCc3ccccc3)CCCC2)c1` here?
A: Its IC50 is > 99.5 µM.

Q: How did the IC50 turn out when `O=C(O)c1cc(Cl)ccc1NS(=O)(=O)c1ccc(OCc2ncccn2)cc1` was run?
A: Its IC50 is > 99.5 µM.

Q: How did the IC50 turn out when `NC(=O)c1ccc(N2CC[C@@H](CO)C2)cc1` was run?
A: Its IC50 is > 99.5 µM.

Q: For `O=C(NCC1CC1)[C@H]1CCCC[C@H]1NS(=O)(=O)c1ccc(Oc2ccccc2Cl)cc1`, which IC50 is on record?
A: Its IC50 is > 99.5 µM.

Q: With `CCn1cc(-c2ccncc2F)nc(N2CC[C@@H](CO)C2)c1=O` as the compound, how does the IC50 read?
A: Its IC50 is > 99.5 µM.

Q: How did the IC50 turn out when `CCn1cc(-c2ccccc2C(=O)OC)nc(N2CC[C@@H](CO)C2)c1=O` was run?
A: The IC50 was > 99.5 µM.
